Data from US20240366487A1, “ANTI-AGING COMPOSITIONS FOR SENSITIVE SKIN” (Baek Clinical Inc., priority 2023, published 2024).

Tested on: skin of human subjects
Assay: Human Repeat Insult Patch Testing (HRIPT)
Format: in vivo
Conditions: positive control, 71 subjects
Procedure: The study duration was 6 weeks and 71 male and female subjects, ranging in age from 18 to 65, completed the study. Subjects were requested to bathe or wash as usual before arrival at the facility Patches containing the test material were then affixed directly to the skin of the intrascapular regions of the back, to the right or left of the midline and subjects were dismissed with instructions not to wet or expose the test area to direct sunlight. Patches remained in place for 48 hours after the first application. Subjects were instructed not to remove the patches prior to their 48-hour scheduled visit, thereafter, subjects were instructed to remove patches 24 hours after application for the remainder of the study. […] Prior to each reapplication, the test sites were evaluated by trained laboratory personnel. Following a 10-14 day rest period a retest/challenge dose was applied once to a previously unexposed test site. Test sites were evaluated by trained laboratory personnel 48 and 96 hours after application. In the event of a reaction, the area of erythema and edema were measured. Edema is estimated by the evaluation of the skin with respect to the contour of the unaffected normal skin. Subjects were instructed to report any delayed reactions that might occur after the final reading.

SMILES: CCCCCCCCCCCCOS(=O)(=O)[O-].[Na+] [1.0% Sodium Lauryl Sulfate Solution, Sodium Lauryl Sulfate]
- subjects with a Grade 1 reaction: 3 subjects
- subjects with a Grade 2 reaction: 1 subject
